Common to all, as to experiment: growth of human tumour cells (NCI), 48 h
In test [1] the test system is SK-OV-3 ovarian.
Test [2] concerns HCT-15 colon.
For test [3], the system named is RPMI-8226 leukemia.
The subject of test [4] is SNB-75 CNS.
The subject of test [5] is SK-MEL-5 melanoma.
Test [6] concerns NCI-H460 lung.
In test [7] the test system is NCI-H23 lung.
Test [8] has as its system SNB-19 CNS.
Test [9] deals with KM12 colon.
Test [10] has as its system SK-MEL-2 melanoma.

Each structure is given as a SMILES string.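 Results reflect a 48-hour exposure of cells in 96-well plates to compound at five concentrations. GI50 marks 50% less growth. TGI denotes the concentration required for complete inhibition of growth.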

As to `COc1ccc(/C(=C2\O[C@@H]([C@H]3COC(C)(C)O3)[C@H]3OC(C)(C)O[C@@H]23)c2cc(OC)c(OC)c(OC)c2)cc1O`, the GI50 in test [1] is 4.11 µM; in [2], 4.51 µM; in [3] it was 4.63 µM; in [4] it was 1.8 µM; in [5], 2.69 µM; in test [6] it was 4.31 µM. Further, the GI50 was 7.96 µM in test [7], 4.28 µM in test [8], 3.99 µM in test [9] and 57.9 µM in test [10]. For the same compound, the TGI was 18.5 µM in test [1]; more than 100 µM in [2]; more than 100 µM in [3]; 6.31 µM in test [4]; 11.2 µM in [5]; more than 100 µM in test [6]. The TGI was 46 µM in test [7], more than 100 µM in test [8], more than 100 µM in [9] and more than 100 µM in test [10].

With `CCCCC(=O)OCC1OC(n2cnc3c(=S)nc[nH]c32)C(OC(=O)CCCC)C1OC(=O)CCCC` (centres undefined), the GI50 in test [1] is 0.636 µM; in [2], 1.56 µM; in [3], 5.81 µM; in [4], 0.213 µM; in test [5] it was 1.76 µM; in [6], 4.38 µM. The GI50 in [7] is 1.36 µM; in test [8], 17.9 µM; in test [9], 1.48 µM; in [10] it was 1.61 µM. Besides, the TGI in test [1] was more than 80.3 µM; in test [2], more than 100 µM; in test [3], more than 100 µM; in test [5], more than 46.5 µM; in [6] it was more than 100 µM; in test [7], more than 100 µM. For the same compound, the TGI is more than 100 µM in test [8], more than 100 µM in test [9] and more than 78.7 µM in test [10].

With `O=c1oc2ccc(F)cc2c(=O)n1-c1ccc(F)cc1F`, the GI50 was 1.72 µM in test [1]; 3.36 µM in [2]; 2.22 µM in [3]; 1.58 µM in test [4]; 1.76 µM in test [5]; 3.42 µM in test [6]. Moreover, the GI50 in [7] is 2.96 µM; in test [8], 3.5 µM; in test [9] it was 3.38 µM; in [10] it was 1.98 µM. For the same compound, the TGI in test [1] was determined as 4.6 µM; in test [2], 17.5 µM; in [3], 7.09 µM; in test [4], 5.43 µM; in [5], 3.69 µM; in [6], 62.4 µM. The TGI in test [7] is 19.7 µM; in [8], more than 100 µM; in test [9], 14 µM; in [10] it was 5.04 µM.

For the compound `CC1CCC2(C(=O)O)CCC3(C)C(=CCC4C5(C)CC(O)C(O)C(C)(CO)C5C(O)CC43C)C2C1C` (centres undefined), the TGI in [1] was more than 100 µM; in test [2], more than 100 µM; in [3], 80.4 µM; in test [4] it was 79.7 µM; in test [5], 87.2 µM; in test [6], more than 100 µM. Also, the TGI in test [7] is more than 100 µM; in test [8], 56.1 µM; in [9] it was more than 100 µM; in [10] it was 36.6 µM.

In the case of `OCCC1(O)CCC(O)CC1` (centres undefined), the TGI in test [1], in test [2], in test [3], in [4], in [5] and in test [6] was more than 100 µM each time. Also, the TGI in test [7], in test [8], in [9] and in [10] was more than 100 µM each time.

On to `Cn1c(N2NC(=O)C(N=Nc3ccc(S(N)(=O)=O)cc3)C2=O)nc(-c2ccco2)c(C#N)c1=O` (centres undefined), for which the GI50 was more than 50 µM in [1]; 8.44 µM in test [2]; 4.98 µM in test [3]; 39.2 µM in test [4]; 35.3 µM in test [5]; more than 50 µM in [6]. For the same compound, the GI50 in test [7] was 12.8 µM; in test [8] it was more than 50 µM; in test [9] it was more than 50 µM; in test [10], more than 50 µM. Also, the TGI in [1] is more than 50 µM; in [2], 22.1 µM; in test [3], 30.2 µM; in [4], more than 50 µM; in test [5], more than 50 µM; in test [6], more than 50 µM. For the same compound, the TGI in test [7], in test [8], in [9] and in test [10] was more than 50 µM in each case.

With `Cc1cc2c(cc1C)[n+](=O)c(C(=O)CC(=O)C(=O)Nc1c(C(C)C)cccc1C(C)C)c(C)n2[O-]`, the TGI in [1], in test [2], in [3], in [4], in test [5] and in test [6] was more than 100 µM each time. The TGI in [7], in test [8], in test [9] and in test [10] was more than 100 µM in each case.

Turning to `CC1(Cl)C(=O)NC(=O)N(C2CC(N=[N+]=[N-])C(CO)O2)C1N=[N+]=[N-]` (centres undefined), the TGI in test [1], in test [2], in [3], in test [4], in test [5] and in test [6] was more than 100 µM in each case. Further, the TGI in test [7], in [8], in test [9] and in test [10] was more than 100 µM in each case.

Take `Cc1nn(CN2CCN(C)CC2)c(=S)n1/N=C/c1cccc2ccccc12`: the GI50 in [1] is 16 µM; in test [2] it was 16 µM; in [3] it was 17.4 µM; in [4] it was 11.1 µM; in test [5], 16.9 µM; in test [6] it was 20.3 µM. Besides, the GI50 in test [7] is 21.7 µM; in test [8], 20.3 µM; in test [9], 19.3 µM; in [10], 20.1 µM. Moreover, the TGI in [1] came to 42.3 µM; in [2], 33.5 µM; in test [3], 39.9 µM; in test [4] it was 38.1 µM; in test [5], 32.1 µM; in test [6] it was 41.6 µM. Moreover, the TGI in test [7] was 56.2 µM; in test [8], 51.6 µM; in test [9] it was 41.4 µM; in [10], 39 µM.
